Test results from US8318780B2 (Intermune, Inc., priority 2009, dated 2012).

Key:
CYP1A2 = molecular target: T1, CYP1A2 (Homo sapiens, UniProt P05177); assay: In vitro metabolism of pirfenidone by CYP isoforms; type: in vitro ADME
T1 sequence (P05177 1-516): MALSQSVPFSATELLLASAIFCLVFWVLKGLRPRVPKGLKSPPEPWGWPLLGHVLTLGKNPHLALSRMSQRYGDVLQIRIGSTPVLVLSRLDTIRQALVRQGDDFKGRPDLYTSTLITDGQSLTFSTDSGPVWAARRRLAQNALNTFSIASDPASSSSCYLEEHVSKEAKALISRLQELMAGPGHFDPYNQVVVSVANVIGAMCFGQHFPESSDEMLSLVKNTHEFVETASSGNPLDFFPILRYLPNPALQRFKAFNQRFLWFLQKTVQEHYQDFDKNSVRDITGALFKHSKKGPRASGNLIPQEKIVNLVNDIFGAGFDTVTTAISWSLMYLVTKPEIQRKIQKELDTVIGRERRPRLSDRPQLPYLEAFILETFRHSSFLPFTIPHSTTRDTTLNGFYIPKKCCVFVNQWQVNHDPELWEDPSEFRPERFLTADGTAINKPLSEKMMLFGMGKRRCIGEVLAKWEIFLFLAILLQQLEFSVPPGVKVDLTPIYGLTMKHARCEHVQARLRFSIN

[1] = system: multiple other CYPs (1A1, 2A6, 2B6, 2C8, 2C9, 2C18, 2C19, 2D6, 2E1, 2J2, 3A4, 3A5, 4A11, and 4F2); assay: In vitro metabolism of pirfenidone by CYP isoforms; type: in vitro ADME; settings: each isoform
Description: There are no unique human metabolites.

[2] = Phase 1 open-label study of the impact of fluvoxamine on the pharmacokinetics of pirfenidone in healthy subjects; settings: for Ratio of Day 11 AUC0-∞ to Day 1 AUC0-∞, Mean (SD) / Ratio of Day 11 AUC0-∞ to Day 1 AUC0-∞, Median (25th-75th): Day 11 with fluvoxamine vs Day 1 without; for AUC0-∞, Mean (SD) / AUC0-∞, Median (25th-75th): single 801-mg dose of pirfenidone, healthy subjects, n = 51, plasma
Description: Study Design. The study was a Phase 1, open-label, parallel-group study in healthy subjects. Fifty-four subjects were to be enrolled in two groups, consisting of 27 subjects who were smokers (Group 1) and 27 subjects who were nonsmokers (Group 2). […] Each group (smokers and nonsmokers) was to include a minimum of nine females and nine males, and attempts were to be made to enroll equal numbers of each sex in each group.

[3] = Study Day 11: Post-Fluvoxamine (fluvoxamine Days 2-11)

| SMILES | Share of pirfenidone metabolism by CYP1A2 (CYP1A2) | Share of pirfenidone metabolism by each other CYP [1] | Ratio of Cmax on Day 11 to the Cmax on Day 1, mean (95% CI) ([2]; Day 11 post-fluvoxamine vs Day 1 pre-fluvoxamine, all subjects) | Effect of fluvoxamine co-administration on AUC0-∞ (significance, paired t-test) ([2]; Day 11 vs Day 1) | Ratio of Day 11 AUC0-∞ to Day 1 AUC0-∞, Mean (SD) ([2]; Nonsmokers, N 25) | Ratio of Day 11 AUC0-∞ to Day 1 AUC0-∞, Median (25th-75th) ([2]; Nonsmokers, N 25) | Ratio of Day 11 AUC0-∞ to Day 1 AUC0-∞, Mean (SD) ([2]; Smokers, N 26) | Ratio of Day 11 AUC0-∞ to Day 1 AUC0-∞, Median (25th-75th) ([2]; Smokers, N 26) | AUC0-∞, Mean (SD) ([2]; Study Day 1: Pre-Fluvoxamine) | AUC0-∞, Median (25th-75th) ([2]; Study Day 1: Pre-Fluvoxamine) | AUC0-∞, Mean (SD) [2, 3] | AUC0-∞, Median (25th-75th) [2, 3] |
| --- | --- | --- | --- | --- | --- | --- | --- | --- | --- | --- | --- | --- |
| Cc1ccc(=O)n(-c2ccccc2)c1 [Pirfenidone, 5-methyl-1-phenyl-2-(1H)-pyridone] | approx 48% | < 13% | – | – | – | – | – | – | – | – | – | – |
| O=C(O)c1ccc(=O)n(-c2ccccc2)c1 [5-Carboxy-Pirfenidone, 5 carboxy-pirfenidone] | – | – | 0.369 (0.349-0.390) | not a statistically significant effect | 1.05 (0.114) | 1.03 (0.978-1.11) | 1.12 (0.0951) | 1.13 (1.04-1.19) | 29.3 (8.22) mg · hr/L | 26.9 (22.0-33.7) mg · hr/L | 31.7 (8.96) mg · hr/L | 29.4 (25.4-36.5) mg · hr/L |
